Consider eight compounds from patent US20260176289A1, “SMALL MOLECULE INHIBITORS OF KRAS PROTEINS” (Merck Sharp & Dohme LLC, priority 2022, published 2026).

Structures are written as SMILES. Like-named read-outs stand apart in the source and are kept apart here.

In experiment [1] the target is KRAS-WT (Homo sapiens, UniProt P01116). Put plainly: SOS-catalyzed nucleotide exchange assay (Procedure A, TR-FRET), KRAS-WT. In kind it is biochemical. The following applies: nucleotide exchange, read-out: KRAS WT GNE IC50. An excerpt:
(§1) Procedure for SOS-Catalyzed Nucleotide Exchange Assay for KRAS-WT, G12C/D/V, G13D, HRAS, and NRAS (Procedure A)
(§2) Recombinant KRAS-G12C protein used in this assay has an additional triple mutation (C51S/C80L/C118S). Whereas KRAS-WT, G12D/V, G13D, HRAS and NRAS are in context of their WT protein sequence background. Specifically, the SOS-catalyzed nucleotide exchange assay utilizes a preformed TR-FRET complex containing a specific biotinylated RAS protein (KRAS-WT, G12C/V/D, G13D, HRAS, NRAS; described above) with Bodipy-GDP, and Terbium-streptavidin. Compounds are preincubated with this complex for 60 minutes. Subsequently, recombinant human SOS protein and unlabeled GTP are added to initiate the exchange reaction. Small molecule inhibitors stabilize the Bodipy-GDP complex whereas the untreated protein rapidly exchanges Bodipy-GDP for unlabeled GTP resulting in reduced TR-FRET signal.
(§3) To assemble the preformed TR-FRET complexes, each biotinylated RAS protein is diluted to 2 μM in an EDTA Buffer (20 mM HEPES pH 7.5, 50 mM sodium chloride, 10 mM EDTA, and 0.01% Tween) and incubated at room temperature for one hour. This mixture is then further diluted to 90 nM in an Assay Buffer (20 mM HEPES pH 7.5, 150 mM sodium chloride, 10 mM magnesium chloride, and 0.005% Tween) containing 15 nM of Terbium-Streptavidin (Invitrogen, catalog #PV3577) and 900 nM of Bodipy-GDP (Invitrogen, catalog #G22360) and incubated at room temperature for six hours. It should be noted that this preformed TR-FRET complex for each of the RAS protein were made ahead of time, aliquoted and stored at −80° C. until the day of the experiment.
(§4) Each test compound (10 mM stock in DMSO) is diluted in DMSO to make a final-10-point, 3-fold dilution and is acoustically dispensed into a 384-well assay plate (Corning, catalog #3820) using an Echo 550 (Labcyte). Each well of the assay plate receives 3 μL of a specific 3×RAS preformed TR-FRET complex and 3 μL of Assay Buffer and is incubated at room temperature for 60 minutes (preincubation time). Each well then receives 3 μL of 3×recombinant human SOS protein and GTP (Sigma, G8877) in Assay Buffer and is incubated at room temperature for 30 minutes (G13D), 60 minutes (KRAS WT/G12C/D, H/NRAS) or 90 minutes for G12V. The final reaction in each well of 9 μL consists of 3 mM GTP, specific Ras and SOS proteins in the following concentrations: KRAS-G12C/SOS=3 nM/40 nM, KRAS-WT and G12D/SOS=1 nM/40 nM, KRAS-G12V/SOS=1.25 nM/160 nM. KRAS-G13D/SOS=1.25 nM/0 nM, HRAS and NRAS=1.25 nM/40 nM.
(§5) The time-resolved fluorescence resonance energy transfer (TR-FRET) signal is measured on an Envision (PerkinElmer) plate reader: Excitation filter=340 nm; emission 1=495 nm; emission2=520 nm; dichroic mirror=D400/D505; delay time=[…]. The signal of each well is determined as the ratio of the emission at 520 nm to that at 495 nm. Percent effect of each well is determined after normalization to control wells containing DMSO (no effect) or a saturating concentration of inhibitor (max effect). The apparent effect as a function of compound concentration is fit to a four-parameter logistic equation.
On the technique in general: TR-FRET usually uses a lanthanide donor and a delayed reading to cut background.

Experiment [2] addresses KRAS-G12D (Homo sapiens, UniProt P01116, G12D). Put plainly: SOS-catalyzed nucleotide exchange assay (Procedure A, TR-FRET), KRAS-G12D. The class given is biochemical. The note with it: nucleotide exchange, read-out: KRAS G12D GNE IC50.
Description: as §1, §2, §3, §4, §5

For experiment [3], the target named is KRAS-G12V (Homo sapiens, UniProt P01116, G12V). Put plainly: SOS-catalyzed nucleotide exchange assay (Procedure A, TR-FRET), KRAS-G12V. In kind it is biochemical. The note with it: nucleotide exchange, read-out: KRAS G12V GNE IC50.
Description: as §1, §2, §3, §4, §5

The test system of experiment [4] is AsPC-1 cells. Kind of experiment: Cellular phospho-ERK assay, AsPC-1 cells (homozygous KRAS-G12D). The class given is cell-based. The following applies: Homo sapiens, ASPC1, 2 h, read-out: AsPC1 pERK IC50. The protocol: Procedure for Cellular Phospho-ERK Assay in KRAS Wild Type and Mutant (G12D, G12V) Cell Lines
MKN-1 cells (JCRB JCRB0252) containing amplified wild-type KRAS, were cultured in growth medium that contains RPMI 1640-GlutaMAX™-I (ThermoFisher Scientific 61870) containing 10% heat inactivated fetal bovine serum (ThermoFisher Scientific 10091148), 1 mM sodium pyruvate and 10 mM HEPES. PANC08.13 cells (ATCC® CRL-2551™), containing homozygous KRAS-G12D activating mutation, were cultured in growth medium made of RPMI1640-GlutaMAX™-I (ThermoFisher Scientific 61870) containing 15% heat inactivated fetal bovine serum (ThermoFisher Scientific 10091148)). AsPC-1 cells (ATCC® CRL-1682™), containing homozygous KRAS-G12D activating mutation, were cultured in T150 flask in growth medium (RPMI medium 1640-GlutaMAX™-I (ThermoFisher Scientific 61870) containing 10% fetal bovine serum (ThermoFisher Scientific 10091148)). SW620 cells (ATCC® […]), containing homozygous KRAS-G12V activating mutation, were cultured in growth medium that contains RPMI 1640-GlutaMAX™-I (ThermoFisher Scientific 61870) containing 10% heat inactivated fetal bovine serum (ThermoFisher Scientific 10091148).
Cells for the assay were harvested in growth medium after TrypLE (ThermoFisher scientific 12604021) digestion and were seeded in a 384-well collagen coated cell culture plate (Corning 356702) at a density of 10,000-15,000 cells/20 μL/well, and incubated at 37° C., 5% CO2 overnight. The compound (with 10 mM stock concentration) dose-response titrations were prepared [30 μM final ERK detection assay concentration and 1:3 dilutions, 10-point dose response] and appropriate amounts (270 nL) of test compounds were dispensed in a 384-well intermediate plate using an Echo 550 liquid handler. 30 μL/well of RPMI medium 1640-GlutaMAX™—I was added to the intermediate plate and the contents of the intermediate plate (10 μL/well) were then transferred to the 384-well collagen coated cell culture plate, which was incubated at 37° C., 5% CO2 for 2 hours. After removal of medium from the collagen coated cell culture plate, cells were lysed in lysis buffer from Alpha SureFire® Ultra™ Multiplex p-ERK and total ERK assay kit (PerkinElmer MPSU-PTERK) containing Halt™ Protease and Phosphatase inhibitor cocktail (ThermoFisher Scientific 78446) at room temperature with constant shaking at 300 rpm for 30 minutes. The cell lysates were then transferred to an OptiPlate-384 plate (PerkinElmer 6005620), and the phosphorylation of ERK (p-ERK) and total ERK levels were detected by Alpha SureFire® Ultra™ Multiplex p-EEK kit and total ERK assay kit (PerkinElmer MPSU-PTERK) following the manufacturer's protocol. Assay plates were read on a En Vision Multimode Plate Reader (PerkinElmer), and the ratio of p-ERK vs. total ERK in each well was used as the final readout. Dose response curves were analyzed using a 4-parameter logistic model to calculate IC50 values using Spotfire software.

Chain of KRAS-G12V (P01116 with tags, fused parts or gaps isoform P01116-2 G12V): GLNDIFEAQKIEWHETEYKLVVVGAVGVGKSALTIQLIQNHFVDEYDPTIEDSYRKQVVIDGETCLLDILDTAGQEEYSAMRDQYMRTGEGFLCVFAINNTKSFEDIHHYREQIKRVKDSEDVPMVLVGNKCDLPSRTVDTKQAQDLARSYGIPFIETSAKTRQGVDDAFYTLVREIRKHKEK
Chain of KRAS-G12D (P01116 with tags, fused parts or gaps isoform P01116-2 G12D): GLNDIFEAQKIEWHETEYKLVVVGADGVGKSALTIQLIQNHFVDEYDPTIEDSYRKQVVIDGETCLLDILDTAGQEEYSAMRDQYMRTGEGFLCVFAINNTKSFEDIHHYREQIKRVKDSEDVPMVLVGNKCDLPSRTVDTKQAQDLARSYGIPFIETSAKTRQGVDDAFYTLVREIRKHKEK
Chain of KRAS-WT (P01116 with tags, fused parts or gaps isoform P01116-2): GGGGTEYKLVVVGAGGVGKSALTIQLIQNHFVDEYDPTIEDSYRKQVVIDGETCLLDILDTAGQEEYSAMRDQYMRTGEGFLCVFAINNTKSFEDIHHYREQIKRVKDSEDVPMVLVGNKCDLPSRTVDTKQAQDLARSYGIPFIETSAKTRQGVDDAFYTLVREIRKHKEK

In the case of `C[C@@]1(O)COCCN(c2nc(OC[C@@]34CCCN3C[C@H](F)C4)nc3sc4c(-c5c(C6=CCC6)c(C(F)(F)F)cc6[nH]ncc56)nccc4c23)C1` [Ex-77, (6S)-4-(8-(5-(cyclobut-1-en-1-yl)-6-(trifluoromethyl)-1H-indazol-4-yl)-2-(((2R,7aS)-2-fluorotetrahydro-1H-pyrrolizin-7a(5H)-yl)methoxy)pyrido[4′,3′:4,5]thi-eno[2,3-d]pyrimidin-4-yl)-6-methyl-1,4-oxazepan-6-ol], the half-inhibitory concentration (IC50) (as a rule, the concentration that inhibits the measured activity by half) in experiment [1] amounted to 61.8 nM; in experiment [2], 15 nM; in experiment [3], 20.8 nM; in experiment [4] (KRAS-G12D, 2 hours) it was 175 nM.

For the compound `Cc1c(Cl)cccc1-c1nccc2c1sc1nc(OC[C@@]34CCCN3C[C@H](F)C4)nc(N3CCOC[C@@](C)(O)C3)c12` [Ex-121, (S)-4-(8-(3-chloro-2-methylphenyl)-2-(((2R,7aS)-2-fluorotetrahydro-1H-pyrrolizin-7a(5H)-yl)methoxy)pyrido[4′,3′:4,5]thi-eno[2,3-d]pyrimidin-4-yl)-6-methyl-1,4-oxazepan-6-ol], the IC50 in experiment [1] came to 1030 nM; in experiment [2] it was 369 nM; in experiment [3] it was 278 nM; in experiment [4] (KRAS-G12D, 2 hours), 3430 nM.

In the case of `CN1CC[C@H]2C(Oc3nc(N4CCOC[C@@](C)(O)C4)c4c(n3)sc3c(-c5c(C6CC6)c(Cl)cc6[nH]ncc56)nccc34)C[C@H]21` (stereo partly drawn) [Ex-216, (6S)-4-(8-(6-chloro-5-cyclopropyl-1H-indazol-4-yl)-2-(((1R,5R,6S)-2-methyl-2-azabicyclo [3.2.0]heptan-6-yl)-oxy)pyrido[4′,3′: 4,5]thieno[2,3-d]pyrimidin-4-yl)-6-methyl-1,4-oxaze-pam-6-ol], the half-maximal inhibitory concentration (IC50) in experiment [1] stood at 1590 nM; in experiment [2] it was 464 nM; in experiment [3], 864 nM; in experiment [4] (2 hours compound incubation), 2900 nM.

Turning to `COc1cc2c(sc3nc(OC[C@@]45CCCN4C[C@H](F)C5)nc(N4CCOC[C@@](C)(O)C4)c32)c(-c2c(C(F)(F)F)c(C)cc3[nH]ncc23)n1` [Ex-27, (6S)-4-(2-(((2R,7aS)-2-fluorotetrahydro-1H-pyrrolizin-7a(5H)-yl)methoxy)-6-methoxy-8-(6-methyl-5-(trifluoromethyl)-1H-indazol-4-yl)pyrido[4′,3′:4,5]thieno[2,3-d]pyrimidin-4-yl)-6-methyl-1,4-oxazepan-6-ol], the half-inhibitory concentration (IC50) was determined as 793 nM in experiment [1]; 196 nM in experiment [2]; 221 nM in experiment [3]; 660 nM in experiment [4] (KRAS-G12D, 2 hours).

As to `C[C@@]1(O)COCCN(c2nc(OC[C@]3(CN4CC5(CCO5)C4)CC3(F)F)nc3sc4c(-c5c(C6(F)CC6)c(Cl)cc6[nH]ncc56)nccc4c23)C1` [Ex-265, (6S)-4-(2-(((R)-1-((1-oxa-6-azaspiro[3.3]heptan-6-yl)methyl)-2,2-difluorocyclopropyl)methoxy)-8-(6-chloro-5-(1-fluorocyclopropyl)-1H-indazol-4-yl)pyrido[4′,3′:4,5]thieno[2,3-d]pyrimidin-4-yl)-6-methyl-1,4-oxazepan-6-ol], the IC50 in experiment [1] came to 24.5 nM; in experiment [2], 4.21 nM; in experiment [3] it was 14.9 nM; in experiment [4] (2 hours compound incubation), 200 nM.

With `C[C@@]1(O)COCCN(c2nc(OC[C@@]34CCCN3C[C@H](F)C4)nc3sc4c(-c5c(C67CC(C6)C7)ccc6[nH]ncc56)nccc4c23)C1` [Ex-42, (6S)-4-(8-(5-(bicyclo[1.1.1]pentan-1-yl)-1H-indazol-4-yl)-2-(((2R,7aS)-2-fluorotetrahydro-1H-pyrrolizin-7a(5H)-yl)methoxy)pyrido[4′,3′:4,5]thi-eno[2,3-d]pyrimidin-4-yl)-6-methyl-1,4-oxazepan-6-ol], the IC50 in experiment [1] is 286 nM; in experiment [2], 135 nM; in experiment [3], 144 nM; in experiment [4] (KRAS-G12D, 2 hours) it was 1380 nM.

`Cc1cc2[nH]ncc2c(-c2nc(-c3ccoc3)cc3c2sc2nc(OC[C@@]45CCCN4C[C@H](F)C5)nc(N4CCOC[C@@](C)(O)C4)c23)c1C(F)(F)F` [Ex-29, (6S)-4-(2-(((2R,7aS)-2-fluorotetrahydro-1H-pyrrolizin-7a(5H)-yl)methoxy)-6-(furan-3-yl)-8-(6-methyl-5-(trifluoromethyl)-1H-indazol-4-yl)pyrido[4′,3′:4,5]thieno[2,3-d]pyrimidin-4-yl)-6-methyl-1,4-oxazepan-6-ol]: the IC50 in experiment [1] turned out to be 852 nM; in experiment [2], 251 nM; in experiment [3] it was 143 nM; in experiment [4] (KRAS-G12D, 2 hours) it was 1530 nM.

For the compound `CN1CCC[C@@H]1COc1nc(N2CCOC[C@@](C)(O)C2)c2c(n1)sc1c(-c3c(C4CC4)c(C(F)(F)F)cc4[nH]ncc34)nccc12` [Ex-81, (6S)-4-(8-(5-cyclopropyl-6-(trifluoromethyl)-1H-indazol-4-yl)-2-(((R)-1-methylpyrrolidin-2-yl)methoxy)pyrido[4′,3′:4,5]thi-eno[2,3-d]pyrimidin-4-yl)-6-methyl-1,4-oxazepan-6-ol], the IC50 was 164 nM in experiment [1]; 85.6 nM in experiment [2]; 86.2 nM in experiment [3]; 1110 nM in experiment [4] (KRAS-G12D, 2 hours).
